Data from patent publication US7365162B2, “Stabilized bioactive peptides and methods of identification, synthesis, and use” (priority 1998, dated 2008).
Where two headings read alike, the source gives them in different places. No end group written: not given here.

What was measured:
[1] = system: E. coli; assay: Growth rate analysis in liquid media of cells expressing induced peptides; assay type: cell-based; settings: for % Inhibition (of the growth rate): ALS225, minimal media, 1 mM IPTG, versus induced pLAC11 vector, average of three determinations; for % inhibition versus pLAC11 control (inhibitory peptide): induced inhibitor; for % inhibition versus pLAC11 control (inhibitory peptide) / % inhibition versus pLAC11 control (antisense construct): growth rate; for % inhibition versus pLAC11 control (antisense construct): ATG start codon converted to ACG, induced
[2] = system: E. coli; assay type: cell-based; settings: ALS225 cells, minimal inducing plate (M9 glycerol Amp IPTG), grid patching
[3] = biological target: ATPase; settings: read-out: Binding Constant; Inhibited Protein: ATPase; cited from earlier work
[4] = biological target: galanin receptor; assay: Radio immunoassay, displacement of radiolabeled galanin from its receptor; assay type: binding
Procedure: Radio immunoassays (RIAs) were performed to determine the ability of galanin and its APP derivatives to displace radiolabeled galanin from its receptor.

[5] = biological target: Nicotinic Acetylcholine; settings: read-out: Binding Constant; cited from earlier work
[6] = biological target: Calpain; settings: Inhibited Protein: Calpain; read-out: Binding Constant; cited from earlier work
[7] = Steif et al. 1993; cited from earlier work

Molecule	% Inhibition (of the growth rate) [1]	Type (one day / two day inhibitor) [2]	other results
pPep13: 18 aa inhibitor peptide (SEQ ID NO:48), C-terminal proline (MDREVMCAAKQEWKERTP; stabilized peptide)	28%	1 Day (able to prevent the growth of the E. coli bacteria at 24 hours)	% inhibition versus pLAC11 control (inhibitory peptide) [1]: 28%
pPep8: 21 aa inhibitor peptide (SEQ ID NO:43) (MLLFGGDCGKAGYFTVLPSR; stabilized peptide)	29%	1 Day (able to prevent the growth of the E. coli bacteria at 24 hours)	
pPep5: 16 aa inhibitor peptide encoded by clone pPep5 (SEQ ID NO:36) (MWRDSWIKGRDVGFMG; stabilized peptide)	24%	1 Day (able to prevent the growth of the E. coli bacteria at 24 hours)	% inhibition versus pLAC11 control (inhibitory peptide) [1]: 23%
Myotoxin (29-42)			Kd [3]: 19000 nM
galanin with the APP (Ala-Pro-Pro) motif at the amino terminus [APP-galanin]			Ki [4]: 6.42 nM
pPep12: 14 aa two day inhibitor peptide (SEQ ID NO:46), two prolines near the C-terminus; printed pPep22 in Table 10 (MNGRTKRIRDPPAA; stabilized peptide)	82%	two day	% inhibition versus pLAC11 control (inhibitory peptide) [1]: 80%; Type (one day / two day inhibitor) ([2]; listed as pPep22): 2 Day (able to prevent the growth of the E. coli bacteria at 48 hours)
pPep17: 12 aa inhibitor peptide (SEQ ID NO:51), C-terminal proline (MLGLEATYPFNP; stabilized peptide)	28%	1 Day (able to prevent the growth of the E. coli bacteria at 24 hours)	
pPep7: 6 aa inhibitor peptide (SEQ ID NO:40) (MYLFIG; stabilized peptide)	26%	1 Day (able to prevent the growth of the E. coli bacteria at 24 hours)	
α-Conotoxin GIA			Kd [5]: 1 nM
pPep6: 42 aa inhibitor peptide (SEQ ID NO:39); last 25 aa could form a hydrophobic membrane-spanning domain (MSGGHVTRECKSAMSNRWIYVIRILMFDSLSSISFNAVVYHS; also: stabilized peptide)	27%	1 Day (able to prevent the growth of the E. coli bacteria at 24 hours)	
pPep10: 20 aa inhibitor peptide (SEQ ID NO:45) (MIGGSLSFAWAIVCNKNSHV; stabilized peptide)	24%	1 Day (able to prevent the growth of the E. coli bacteria at 24 hours)	
SCP (153-180)			Kd [6]: 30 nM
pPep19: 5 aa inhibitor peptide (SEQ ID NO:52) (MRGAN; stabilized peptide)	29%	1 Day (able to prevent the growth of the E. coli bacteria at 24 hours)	% inhibition versus pLAC11 control (inhibitory peptide) [1]: 29%
pPep19-anti: pPep19 insert recloned in pLAC11 with ATG start codon changed to ACG (SEQ ID NO:33) (nucleic acid, expressed or natural sequence) DNA: TACTATAGATCTACGAGGGGCGCCAACTAAGGGGGGGGGAAGGTATTTGTCCCGTGCATAATCTCGGGTGTTGTCTAATAAGAATTCTCGACA			% inhibition versus pLAC11 control (antisense construct) [1]: 0%
pPep12-anti: pPep12 insert recloned in pLAC11 with ATG start codon changed to ACG (SEQ ID NO:31) (nucleic acid, expressed or natural sequence) DNA: TACTATAGATCTACGAACGGCCGAACCAAACGAATCCGGGACCCACCAGCCGCCTAAACAGCTACCAGCTGTGGTAATAAGAATTCTCGACA			% inhibition versus pLAC11 control (antisense construct) [1]: 0%
Rop: small 63 amino acid four-helix bundle protein from the ColEl replicon, used as stabilizing group (protein, UniProt P03051 1-63, looked up) Regulatory protein rop: MTKQEKTALNMARFIRSQTLTLLEKLNELDADEQADICESLHDHADELYRSCLARFGDDGENL			midpoint temperature of denaturation, Tm [7]: about 71 °C
pPep5-anti: pPep5 insert recloned in pLAC11 with ATG start codon changed to ACG (SEQ ID NO:30) (nucleic acid, expressed or natural sequence) DNA: TACTATAGATCTACGTGGCGGGACTCATGGATTAAGGGTAGGGACGTGGGGTTTATGGGTTAAAATAGTTTGATAATAAGAATTCTCGACA			% inhibition versus pLAC11 control (antisense construct) [1]: 0%
pPep13-anti: pPep13 insert recloned in pLAC11 with ATG start codon changed to ACG (SEQ ID NO:32) (nucleic acid, expressed or natural sequence) DNA: TACTATAGATCTACGGACCGTGAAGTGATGTGTGCGGCAAAACAGGAATGGAAGGAACGAACGCCATAGGCCGCGTAATAAGAATTCTCGACA			% inhibition versus pLAC11 control (antisense construct) [1]: 0%
pPep1-anti: pPep1 insert recloned in pLAC11 with ATG start codon changed to ACG (SEQ ID NO:29) (nucleic acid, expressed or natural sequence) DNA: TACTATAGATCTACGGTCACTGAATTTTGTGGCTTGTTGGACCAACTGCCTTAGTAATAGTGGAAGGCTGAAATTAATAAGAATTCTCGACA			% inhibition versus pLAC11 control (antisense construct) [1]: 0%
